# Key:
# [1] = system: transplanted murine donor hearts; test: Murine heterotopic syngeneic heart transplantation; type: in vivo, mouse
# Protocol: (§1) Cardiac grafts procured from WT C57Bl/6J mice following arrest with cold (4° C.) HTK±VPA were transplanted into the right neck of sex-matched syngeneic C57BL/6J recipient mice following 16 hours of cold (4° C.) preservation in corresponding HTK±VPA solution as previously described (59). A cuff technique was used to connect the recipient right common carotid artery and right external jugular vein to the donor ascending aorta and pulmonary artery, respectively. Following reperfusion in the recipient, successful grafts were expected to resume a regular heartbeat. At 24 hours after reperfusion, the surgical incision was reopened and a small conductance catheter was introduced into the LV to measure contractility and relaxation.
# Blood from recipient mice was centrifuged at 3000 g in 4° C. for 10 minutes. Serum was aliquoted and snap-frozen. Serum cTnT, cTnI, TNFα, IL-6, IP10 and MIG concentrations were measured using Sigma-Aldrich MILLIPLEX kits (Cat. No.: MCYTMAG, MCVD2MAG). Pig arterial perfusate was centrifuged at 3000 g in 4° C. for 10 minutes. The abundance of cTnI, IL-1β, IL-6 and TNF-α was detected using Sigma MILLIPLEX kit (Cat. No.: MCVD2MAG, PCYTMAG).
# human donor hearts = test: Mass spectrometry metabolomics of cold-preserved human donor hearts
# Protocol: (§2) Pig hearts underwent ex-vivo perfusion after preservation for 4 or 10 hours. Approval for human heart procurement was obtained from the University of Michigan Institutional Review Board (HUM00131275). Human donor hearts from deceased brain death donors were procured as per standard clinical protocols from the Gift of Life Michigan (GOLM) organ procurement facility. Myocardial biopsies (˜5 mm^3) of LV were biopsied immediately after cardioplegic arrest (0 h) and after 8 hours (8 h) of cold storage in a cooler containing ice. […] Causes of death were stroke (n=4), trauma (n=2), drug overdose (n=1), and cardiac arrest (n=1). Heart tissue were either fixed in formalin or snap frozen in liquid N2 for later analysis.
# (§3) Metabolomics measurements were performed by the Michigan Regional Comprehensive Metabolomics Resource Core (Ann Arbor, MI, USA).
# murine hearts = test: Mass spectrometry metabolomics of preserved or transplanted murine hearts; set-up: species or system mouse
# Protocol: (§4) Male and female WT or Irg1^−/− mice (Jackson laboratories, Bar Harbor, ME) were anesthetized intraperitoneally with 80 mg/kg ketamine and 5 mg/kg xylazine, anticoagulated with heparin (2,000 U/kg iv), and the heart was rapidly exposed through a sternal incision. The aorta was cannulated and retrograde perfused in-situ with HTK solution±HDAC inhibitors. After cannulation, the heart dissected free, the left atrium was opened. For 4-OI (Cayman Chemical, 25374) experiments, donor mice were treated 4-OI (dissolved in 40% β-Cyclodextrin, 50 mg/kg intraperitoneally) or vehicle control (40% β-Cyclodextrin intraperitoneally) 2 hours prior to donor heart procurement. After dissection, the heart was stored at 4° C. with HTK or HTK with VPA for a pre-designated duration. The hearts were then mounted on a Radnoti mouse Langendorff apparatus (ADInstruments inc., Colorado Springs, CO) in constant-pressure mode (˜70 mmHg) with a modified Krebs-Henseleit buffer (KHB; in mM: 118 NaCl, 4.7 KCl, 1.25 CaCl2), 1.66 MgSO4, 24.88 NaHCO3, 1.18 KH2PO4, 5.55 glucose, and 2.0 Na-pyruvate). A balloon was placed in the LV through the left atrium and left ventricular diastolic pressure was set to ˜8 mmHg at initiation. The heart was perfused with modified Krebs-Henseleit buffer for 30 min to stabilize and then hemodynamics measurements were recorded. Myocardial temperature was maintained at 37° C. LabChart software (ADInstruments inc., Colorado Springs, CO) was used to record ventricular function, perfusion pressures, cardiac chamber temperature and myocardial temperature. After perfusing the heart for 60 minutes, the heart was removed from the ex-vivo perfusion apparatus for specimen collection. Tissue was immediately placed in liquid N2 or treated with 4% formalin.
# as §1, §3
# IRG1 = IRG1 enhancer ChIP-qPCR and mRNA expression in human donor heart tissue
# Protocol: as §2
# murine donor hearts = test: Murine donor heart tissue staining and Western blot (oxidative stress, antioxidant proteins, cell death); set-up: species or system mouse
# Protocol: as §4
# [2] = 16 h cold preservation, 24 h reperfusion in recipient
# [3] = recipient serum after transplantation
# [4] = human hearts during cardiac preservation
# [5] = cold static preservation as well as transplantation
# [6] = following murine heart transplantation
# [7] = mice hearts during cardiac preservation
# [8] = 16 hours preservation, ex-vivo perfusion
# [9] = ex vivo perfused WT murine hearts
smiles,measurement,setting,value
"CCCC(CCC)C(=O)O [VPA, 2-Propyl-pentanoic acid]",improvement of in vivo donor heart contractility (max dP/dt) compared to standard HTK solution alone,[1]; [2],265%
same,improvement of in vivo donor heart relaxation (min dP/dt) compared to standard HTK solution alone,[1]; [2],250%
same,cell death in transplanted heart tissue,[1]; TUNEL,reduced
same,serum concentration of IL-6,[1]; [3],reduced
same,serum concentration of IP-10,[1]; [3],reduced
same,serum concentration of MIG,[1]; [3],reduced
same,serum concentration of TNFα,[1]; [3],reduced
same,serum troponin I,[1]; [3],reduced
same,serum troponin T,[1]; [3],reduced
same,leukocyte infiltration,[1]; transplanted heart tissue,reduced
same,decrease in itaconate during cold storage,"human donor hearts; cold preservation, HTK±VPA",limited
same,succinate production,"human donor hearts; cold preservation, HTK±VPA",reduced
same,fumarate concentration in VPA-treated group,human donor hearts; [4],43.5±6.6 pmol/mg tissue
same,itaconate concentration in VPA-treated group,human donor hearts; [4],8.0±1.0 pmol/mg tissue
same,itaconate,murine hearts; [5],increased
same,succinate,murine hearts; [5],decreased
same,fumarate,murine hearts; [6],increased
same,glutamate,murine hearts; [6],decreased
same,malate,murine hearts; [6],increased
same,fumarate concentration in VPA-treated group,murine hearts; [7],29.0±7.5 pmol/mg tissue
same,itaconate concentration in VPA-treated group,murine hearts; [7],8.8±0.8 pmol/mg tissue
same,"acetyl-CoA, citrate, α-ketoglutarate, fumarate, or malate abundance",murine hearts; murine hearts during cold preservation,no changes
same,IRG1 enhancer activity (H3K27ac ChIP-qPCR),IRG1; 8-hours of preservation compared to HTK alone,increased
same,IRG1 mRNA transcript expression,IRG1; human hearts after preservation,increased
same,overall oxidative stress (DHE staining),murine donor hearts; [8],decreased
same,oxidative DNA damage (8OHdG staining),murine donor hearts; [8],decreased
same,NRF2 nuclear translation effect,murine donor hearts; Irg1−/− hearts,greatly reduced
same,benefit on TUNEL staining in α-actinin+ cardiomyocytes,murine donor hearts; Irg1−/− hearts,lost
same,antioxidant protein expression,murine donor hearts; Irg1−/− murine hearts,no increase
same,NRF2 nuclear translation from the cytoplasm,murine donor hearts; WT hearts,induced
same,protein abundance of HO1,murine donor hearts; [9],upregulated
same,protein abundance of SOD1,murine donor hearts; [9],upregulated
same,protein abundance of SOD2,murine donor hearts; [9],not
same,protein abundance of total NRF2,murine donor hearts; [9],upregulated
same,ratio of reduced (GSH) versus oxidized glutathione (GSSG),murine donor hearts; preserved and transplanted murine hearts,increased
same,TUNEL staining in α-actinin+ cardiomyocytes,murine donor hearts; wild type hearts,reduced

# — patent US20240341301A1 (The Regents of the University of Michigan, priority 2023, published 2024)
